Patent publication US11840528B2 (Hoffmann-La Roche Inc., priority 2018, dated 2023)

Legend:
h-GABA-A α5β3γ2 [1] = biological target: T1, h-GABA-A α5β3γ2 (Homo sapiens, UniProt P18507+P31644); assay: [3H]flumazenil competition binding assay, membranes of HEK293 cells expressing GABAA receptors; settings: displacement of [3H]-Flumazenil 0.5 nM, HEK293 cells expressing human receptors, mean of two determinations; Table 1
How it was run: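 Receptor source: human α5β3γ2 transiently transfected into HEK293 cells, membranes in pH 7.5 Krebs-tris. Filtration through GF/C, then scintillation counting.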

h-GABA-A α5β3γ2 [2] = biological target: T1, h-GABA-A α5β3γ2; assay: Two-electrode voltage clamp electrophysiology in Xenopus laevis oocytes expressing GABAA receptors, modulation of GABA EC20 current; format: cell-based; set-up: host or cells: Xenopus laevis oocytes micro-injected with RNA transcripts of the subunits; settings: Table 1; for Efficacy (GABA) %: % modulation of GABA EC20 = 100*(Fold increase-1); for Fold increase h-GABA-A α5β3γ2 oocyte: test compound at approx. 30 fold its Ki, GABA at EC20
How it was run: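 Modulation is reported as % of the GABA EC20 current, calculated as 100*(Fold increase−1) from the peak ratio between a second GABA response carrying compound (applied at roughly 30-fold Ki) and a preceding control response. Oocytes expressing human α5β3γ2 were clamped at −80 mV at room temperature, 3–5 days after injection.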

Ki (h-GABA-A α5β3γ2 [1]) | Efficacy (GABA) % (h-GABA-A α5β3γ2 [2]) | Fold increase h-GABA-A α5β3γ2 oocyte (h-GABA-A α5β3γ2 [2]) | Compound
3.2 nM | 178% | 2.78 | CCc1onc(-c2ccc(C)nn2)c1Cn1ncc(N2CC3(CCC(F)CO3)C2)cc1=O (single isomer, unassigned) [Example 325]
30.8 nM | 115% | 2.15 | Cc1ccc(-c2noc(C)c2Cn2ncc(N3CC4(CCCO4)C3)cc2=O)cn1 [Example 95, 2-[[5-methyl-3-(6-methyl-3-pyridyl)isoxazol-4-yl]methyl]-5-(5-oxa-2-azaspiro[3.4]octan-2-yl)pyridazin-3-one]
38.4 nM | 181% | 2.81 | Cc1ccc(-c2noc(C)c2Cn2ncc(N3CC4(COC4)C3)cc2=O)cn1 [Example 38, 2-[[5-methyl-3-(6-methyl-3-pyridyl)isoxazol-4-yl]methyl]-5-(2-oxa-6-azaspiro[3.3]heptan-6-yl)pyridazin-3-one]
7.3 nM | 172% | 2.72 | Cc1ccc(-c2noc(C)c2Cn2ncc(N3CC[C@H](C(C)(C)O)C3)cc2=O)cn1 [Example 120, 5-((3S)-3-(2-hydroxypropan-2-yl)pyrrolidin-1-yl)-2-((5-methyl-3-(6-methylpyridin-3-yl)-1,2-oxazol-4-yl)methyl)pyridazin-3-one]
3.2 nM | 20% | 1.2 | Cc1onc(-c2ccc(Cl)cn2)c1Cn1ncc(N2CC3(CCCO3)C2)cc1=O [Example 144, 2-((3-(5-Chloropyridin-2-yl)-5-methylisoxazol-4-yl)methyl)-5-(5-oxa-2-azaspiro[3.4]octan-2-yl)pyridazin-3(2H)-one]
2.4 nM | 97% | 1.97 | COC1CN(c2cnn(Cc3c(-c4ccc(C)nn4)noc3C)c(=O)c2)C1 [Example 169, 5-(3-methoxyazetidin-1-yl)-2-[[5-methyl-3-(6-methylpyridazin-3-yl)isoxazol-4-yl]methyl]pyridazin-3-one]
37.4 nM | 160% | 2.6 | Cc1ccc(-c2noc(C)c2Cn2ncc(N3CC(Oc4ccc(C)nn4)C3)cc2=O)cn1 [Example 186, 2-[[5-methyl-3-(6-methyl-3-pyridyl)isoxazol-4-yl]methyl]-5-[3-(6-methylpyridazin-3-yl)oxyazetidin-1-yl]pyridazin-3-one]
2.5 nM | 100% | 2 | Cc1ccc(-c2noc(C)c2Cn2ncc(N3CC(OC4(C)CC4)C3)cc2=O)nn1 [Example 305, 5-[3-(1-methylcyclopropoxy)azetidin-1-yl]-2-[[5-methyl-3-(6-methylpyridazin-3-yl)isoxazol-4-yl]methyl]pyridazin-3-one]
7.9 nM | 57% | 1.57 | Cc1onc(-c2ccc(F)cc2)c1Cn1ncc(N2CCOCC2)cc1=O [Example 11, 2-((3-(4-Fluorophenyl)-5-methylisoxazol-4-yl)methyl)-5-morpholinopyridazin-3(2H)-one]
19.8 nM | 84% | 1.84 | Cc1ccc(-c2noc(C)c2Cn2ncc(-c3ccc4ncc(C)n4c3)cc2=O)cn1 [Example 218, 2-((5-methyl-3-(6-methylpyridin-3-yl)isoxazol-4-yl)methyl)-5-(3-methylimidazo[1,2-a]pyridin-6-yl)pyridazin-3(2H)-one]
2.6 nM | 66% | 1.66 | Cc1ccc(-c2noc(C)c2Cn2ncc(-c3ccnc(N(C)C)c3)cc2=O)cn1 [Example 156, 5-(2-(dimethylamino)pyridin-4-yl)-2-((5-methyl-3-(6-methylpyridin-3-yl)isoxazol-4-yl)methyl)pyridazin-3(2H)-one]
7.3 nM | 153% | 2.53 | Cc1ccc(-c2noc(C)c2Cn2ncc(N3CC(Oc4cccc(F)c4)C3)cc2=O)cn1 [Example 127, 5-[3-(3-fluorophenoxy)azetidin-1-yl]-2-[[5-methyl-3-(6-methyl-3-pyridyl)isoxazol-4-yl]methyl]pyridazin-3-one]
26.4 nM | 135% | 2.35 | CCOC1CN(c2cnn(Cc3c(-c4ccc(Cl)nc4)noc3C)c(=O)c2Cl)C1 [Example 272, 4-chloro-2-((3-(6-chloropyridin-3-yl)-5-methylisoxazol-4-yl)methyl)-5-(3-ethoxyazetidin-1-yl)pyridazin-3(2H)-one]
5.4 nM | 80% | 1.8 | Cc1ccc(-c2noc(C)c2Cn2ncc(N3CC4(CC(C)CO4)C3)cc2=O)nn1 (single isomer, unassigned) [Example 241, 2-[[5-methyl-3-(6-methylpyridazin-3-yl)isoxazol-4-yl]methyl]-5-[(7S)-7-methyl-5-oxa-2-azaspiro[3.4]octan-2-yl]pyridazin-3-one or enantiomer]
17.2 nM | 118% | 2.18 | Cc1ccc(-c2noc(C)c2Cn2ncc(N3CC4(CCCCC4)C3)cc2=O)cn1 [Example 195]
3.8 nM | 70% | 1.7 | COc1cc(-c2cnn(Cc3c(-c4ccc(C)nc4)noc3C)c(=O)c2)ccn1 [Example 107, 5-(2-methoxypyridin-4-yl)-2-((5-methyl-3-(6-methylpyridin-3-yl)isoxazol-4-yl)methyl)pyridazin-3(2H)-one]
5.7 nM | 94% | 1.94 | Cc1ccc(-c2noc(C)c2Cn2ncc(N3CC4(CC(C)CO4)C3)cc2=O)nn1 (single isomer, unassigned) [Example 240, 2-[[5-methyl-3-(6-methylpyridazin-3-yl)isoxazol-4-yl]methyl]-5-[(7R)-7-methyl-5-oxa-2-azaspiro[3.4]octan-2-yl]pyridazin-3-one or enantiomer]
20 nM | 166% | 2.66 | CCc1onc(-c2ccc(C)nn2)c1Cn1ncc(N2CC3(CCCCO3)C2)cc1=O [Example 324, 2-((5-ethyl-3-(6-methylpyridazin-3-yl)isoxazol-4-yl)methyl)-5-(5-oxa-2-azaspiro[3.5]nonan-2-yl)pyridazin-3(2H)-one]
15.4 nM | 157% | 2.57 | Cc1ccc(-c2noc(C)c2Cn2ncc(N3CCN(C4CC4)[C@H](C)C3)cc2=O)cn1 [Example 59, 5-[(3R)-4-cyclopropyl-3-methyl-piperazin-1-yl]-2-[[5-methyl-3-(6-methyl-3-pyridyl)isoxazol-4-yl]methyl]pyridazin-3-one]
4.6 nM | 89% | 1.89 | Cc1ccc(-c2noc(C)c2Cn2ncc(N3CC4(CCC(F)CO4)C3)cc2=O)cn1 (single isomer, unassigned) [Example 275]

Compound | Ki (h-GABA-A α5β3γ2 [1]) | Efficacy (GABA) % (h-GABA-A α5β3γ2 [2]) | Fold increase h-GABA-A α5β3γ2 oocyte (h-GABA-A α5β3γ2 [2])
Cc1ccc(-c2noc(C)c2Cn2ncc(N3CC[C@@H](OC(C)(C)C)C3)cc2=O)cn1 [Example 90, 5-[(3R)-3-tert-butoxypyrrolidin-1-yl]-2-[[5-methyl-3-(6-methyl-3-pyridyl)isoxazol-4-yl]methyl]pyridazin-3-one] | 24.8 nM | 109% | 2.09
